Assay results: patent US8349553B2, “Jasmonate based assays for identifying compounds that selectively inhibit mitochondrial bound hexokinases” (Ramot at Tel Aviv University Ltd., priority 2007, dated 2013)

What was measured:
[1] = test system: mitochondria-bound hexokinase (mitochondrial fraction of B16 melanoma tumors); experiment: Hexokinase detachment assay, mitochondrial fraction of B16 melanoma tumors; format: biochemical, murine; details: B16 tumor mitochondrial fraction; 30 minutes at 37° C.
Description: Mitochondrial fraction was prepared by mechanical lysis and differential centrifugation. All stages were performed on ice. Cells or extracted tissues were washed with PBS and disrupted by homogenization in extraction buffer (Sucrose 250 mM, HEPES-NaOH 10 mM, pH 7.2) freshly supplemented with 0.1 mM EDTA and Protease Inhibitors cocktail (Sigma). For each gram of cells or tissue, 4 volumes of extraction buffer were applied. The homogenate volume was doubled with the extraction buffer, and tissue and cell debris as well as nuclei were pelleted by centrifugation of 1,000 g for 10 minutes. The supernatant was further spun at 13,000 g for 10 minutes twice. Endoplasmic reticulum layer was removed. The pellet, designated as the mitochondrial fraction, was suspended in the appropriate buffer, depending on the assay for which the mitochondrial fraction was prepared. Mitochondrial fractions were used immediately or stored at −196° C. […] Activity of hexokinase in the supernatant (i.e., activity of the detached hexokinase) was determined spectrophotometrically at 340 nm. […] Mitochondrial fractions isolated from different cancer cells, namely Molt-4 cells, BCL-1 leukemic cells and B16 melanoma tumors were incubated for 30 minutes at 37° C., and the activity of unbound hexokinase was measured and compared to the activity of spontaneously (control) detached hexokinase. […]

[2] = test system: HKI and HKII (mitochondrial fraction of B16 tumors); experiment: Western blot of supernatants with anti-HKI and anti-HKII, B16 tumor mitochondrial fraction; format: biochemical, murine; details: B16 tumor mitochondrial fraction supernatant
Description: For analysis of hexokinase levels, the experiments were performed similarly to hexokinase detachment assay described above, and unbound hexokinase in the supernatant fraction was extracted as described in Fingrut (2005). Samples were separated by sodium dodecylsulfate-polyacrylamide gel (7%) electrophoresis followed by immunoblotting. The blots were probed with specific anti-HKI or anti-HKII antibodies (1:300, Santa-Cruz Biotechnology, CA, USA). Hexokinase-antibody complexes were stained with HRP-conjugated antibody (1:10,000, Santa-Cruz Biotechnology, CA, USA). Enhanced chemiluminescence (ECL) reagent (Biological Industries, Beit Haemek, Israel) was added, and the blots were exposed to ECL film (Eastman Kodak, Rochester, N.Y., USA). Hexokinase detachment from mitochondrial fraction is not limited to CT-26 colon carcinoma. Mitochondrial fractions isolated from different cancer cells, namely Molt-4 cells, BCL-1 leukemic cells and B16 melanoma tumors were incubated for 30 minutes at 37° C., and the activity of unbound hexokinase was measured and compared to the activity of spontaneously (control) detached hexokinase. […] The supernatant of the experiments were separated on SDS-PAGE and probed with anti-HKI and anti-HKII antibodies.

Molt-4 cells = experiment: Cellular ATP levels (CellTiter-Glo), Molt-4; format: cell-based, human; details: 60 minutes of exposure, various concentrations
Description: The CellTiter-Glo™ Luminescent Cell Viability Assay (Promega, Madison, Wis., U.S.A.) was employed (Fingrut, 2005). Upon completion of a given experiment, plates were equilibrated to room temperature. CellTiter-Glo™ reagent containing luciferin and luciferase was added to each well and the plates were mixed on an orbital shaker for 2 minutes to induce cell lysis. In the presence of ATP, Mg^2+ and molecular oxygen, mono-oxidation of luciferin is catalyzed by luciferase, generating a luminescence signal. Cells were then incubated for 10 minutes at room temperature to stabilize the luminescence signal. Luminescence was recorded using Kodak digital science—Image station 440 CD. Luminescence is directly proportional to ATP concentration. ATP depletion (% of control) was calculated in the following way: {(luminescence of control cells−luminescence of drug-treated cells)/luminescence of control cells}×100. In order to test the correlation between cellular ATP levels and the release of hexokinase from mitochondrial fraction different cancer cells, namely Molt-4 cells, BCL-1 leukemic cells and B16 melanoma tumors were exposed to various methyl jasmonate concentrations. […] CT26 and Molt-4 cells were then seeded in 24 well plates. CT26 cells were allowed to adhere over night. Cells were exposed to methyl jasmonate (MJ; 3 mM) for 1 hour. Trypan blue exclusion test was performed and cells were counted.

CT26 cells = experiment: Trypan blue exclusion test, CT26; format: cell-based, murine; details: 3 mM, 1 hour
Description: Cell death was determined by trypan blue exclusion. […] Alternatively, cytotoxicity was determined using hemacolor staining. […] In order to test the correlation between cellular ATP levels and the release of hexokinase from mitochondrial fraction different cancer cells, namely Molt-4 cells, BCL-1 leukemic cells and B16 melanoma tumors were exposed to various methyl jasmonate concentrations. […] CT26 and Molt-4 cells were then seeded in 24 well plates. CT26 cells were allowed to adhere over night. Cells were exposed to methyl jasmonate (MJ; 3 mM) for 1 hour. Trypan blue exclusion test was performed and cells were counted.

[3] = test system: CT26 cells transfected with pcDNA3-HKII or pcDNA3
Description: Cell death was determined by trypan blue exclusion. […] Alternatively, cytotoxicity was determined using hemacolor staining. Upon completion of a given experiment, cells were stained and the percentage of dead (detached) cells was determined spectrophotometrically.
CT26 cells were transfected with pcDNA3-HKII or pcDNA3, using FuGene HD transfection reagent (Roche, Basel, Switzerland), according to the manufacturer's instruction followed by selection using G418.
To examine the effect of hexokinase over-expression on methyl jasmonate action, CT26 cells were transfected with plasmids, pcDNA3-HKII or pcDNA3, encoding for hexokinase II over-expression and a control plasmid, respectively (Zaid, 2005). Cells were seeded in 96-well plates and allowed to adhere. Cells were exposed to methyl jasmonate for 60 minutes prior to ATP determination (FIG. […] 9B).

CC/C=C\CC1C(=O)CCC1CC(=O)OC (centres unmarked) [methyl jasmonate]
detachment of hexokinase (activity of unbound hexokinase compared to control) [1]: detached hexokinase from mitochondrial fraction isolated from the three different cancer cells
detachment of hexokinase confirmed by immunoblot (anti-HKI, anti-HKII) [2]: detachment of hexokinase from mitochondrial fraction of the various cancer cells was further confirmed
cellular ATP level (Molt-4 cells): significant and dose-dependent decrease of cellular ATP
live/dead cells by Trypan blue exclusion (CT26 cells): still alive after 60 minutes
cytotoxicity (hemacolor), hexokinase II over-expressing vs. control cells [3]: decreased in cells with higher expression of hexokinase II
